The values below come from patent US9828390B2, “Tetrahydropyrrolo[3,4-D][1,3]thiazine-derivative as BACE inhibitor” (Eli Lilly and Company, priority 2014, dated 2017).

Each structure is given as a SMILES string.

This series can be described thus: Crystal form stability versus relative humidity. The class given is physicochemical.

In the case of `COc1cnc(C(=O)Nc2ccc(F)c([C@]34CN(c5ncc(F)cn5)C[C@H]3CSC(N)=N4)c2)cn1` [Example 1A, Crystalline Form 1 N-[3-[(4aR,7aS)-2-Amino-6-(5-fluoropyrimidin-2-yl)-4,4a,5,7-tetrahydropyrrolo[3,4-d][1,3]thiazin-7a-yl]-4-fluoro-phenyl]-5-methoxy-pyrazine-2-carboxamide], the Crystal form stability result (room temperature and relative humidity less than about 15%) is given as “stable crystal form”. For `COc1cnc(C(=O)Nc2ccc(F)c([C@]34CN(c5ncc(F)cn5)C[C@@H]3CN=C(N)S4)c2)cn1.O` [Example 1B, Crystalline Form 2 N-[3-[(4aR,7aS)-2-Amino-6-(5-fluoropyrimidin-2-yl)-4,4a,5,7-tetrahydropyrrolo[3,4-d][1,3]thiazin-7a-yl]-4-fluoro-phenyl]-5-methoxy-pyrazine-2-carboxamide (hydrated)], the Crystal form stability result (room temperature and relative humidity greater than about 15%) is “stable crystal form”.
